Test results: patent US20110021471A1, “REDUCING Abeta42 LEVELS AND Abeta AGGREGATION” (priority 2007, published 2011)
Read-outs that look alike come from different tables or passages of the source.

Legend:
APP wild-type cells = test: Aβ modulation in APP wild-type cells; assay type: cell-based; set-up: Aβ42 raised: dose or concentration left out as unconfirmed
Procedure: (§1) (A) and (B) The sequences of wildtype (WT; A) APP and the mutated substrate (B) containing the homologous region (italic, underlined) of the NOTCH transmembrane domain (TMD) in APP where GSMs are hypothesized to bind. […] Bottom row, FT-1 ([…]) raised Aβ42 200% in APP wild-type cells (A); however, in APP-NOTCH TMD cells (B), FT-1 caused minimal changes in the Aβ42 (95%) or Aβ40 (90%) signal. Data are presented as amyloid-β percentage of control±s.e.m., n=3.
FIG. 19. Substitution of human Notch sequence in the APP transmembrane domain (TMD) changes sensitivity to modulation. (A) Site-directed mutagenesis was used to exchange the analogous region of the human Notch TMD (bold and underlined) for a section (bold and underlined) of wild-type APP (APPwt) we have shown to be labeled by GSMs. The new substrate (APP-Notch TMD) is cleaved by γ-secretase primarily after valine and alanine residues corresponding to 40 and 42 in APPwt (arrows). […] The beginning (1) N-terminal amino acid (AA) to the ending C-terminal AA is shown above each peak, with the molecular weight (m/z) below. 1-40 and 1-42 are detected as the two major species in APP-Notch TMD conditioned media. It should be noted that the mutagenesis strategy to create APPNotch TMD led to a single AA deletion relative to APPwt. […] Both cell lines were treated (6 hours) with L-685,458 (10 μM), which is hypothesized to target the active site aspartate residues, media was collected, and analyzed for changes in Aβ levels. […]
To test the hypothesis that mutation of the GSM binding site in APP should alter sensitivity to GSMs, a portion of the GSM binding site in APP was exchanged with the analogous region of human NOTCH (FIGS. 18A and 18B; FIG. 19). […] Although the molecular weight and abundance of each chimeric peptide differed from amyloid-β peptides from APP, the main species produced from the APP-NOTCH TMD construct had identical C-termini to Ab1-40 and Ab1-42, and could be quantified by enzyme-linked immunosorbent assays (ELISAs; FIG. 19). […]

APP-NOTCH TMD cells = test: Aβ modulation in APP-NOTCH TMD cells; assay type: cell-based, human; set-up: Aβ42 signal (percentage of control) / Aβ40 signal (percentage of control): dose or concentration left out as unconfirmed
Procedure: as §1
FIG. 19. Substitution of human Notch sequence in the APP transmembrane domain (TMD) changes sensitivity to modulation. (A) Site-directed mutagenesis was used to exchange the analogous region of the human Notch TMD (bold and underlined) for a section (bold and underlined) of wild-type APP (APPwt) we have shown to be labeled by GSMs. The new substrate (APP-Notch TMD) is cleaved by γ-secretase primarily after valine and alanine residues corresponding to 40 and 42 in APPwt (arrows). […] The beginning (1) N-terminal amino acid (AA) to the ending C-terminal AA is shown above each peak, with the molecular weight (m/z) below. 1-40 and 1-42 are detected as the two major species in APP-Notch TMD conditioned media. It should be noted that the mutagenesis strategy to create APPNotch TMD led to a single AA deletion relative to APPwt. The correct change in molecular weight caused by the introduced mutations were confirmed by the mass spectrum. For simplicity the peptides are referenced by their C-terminal residues relative to Aβ (40, 42, etc). Representative mass spectra are shown from multiple IP reactions (3) and duplicate spots. […] Both cell lines were treated (6 hours) with L-685,458 (10 μM), which is hypothesized to target the active site aspartate residues, media was collected, and analyzed for changes in Aβ levels. The 40 and 42 Aβ reactive species from both cell lines were inhibited by L-685,458 with equal sensitivity (no significant difference; 40 p>0.5; 42 p>0.4; t test; n=3).
To test the hypothesis that mutation of the GSM binding site in APP should alter sensitivity to GSMs, a portion of the GSM binding site in APP was exchanged with the analogous region of human NOTCH (FIGS. 18A and 18B; FIG. 19). The chimeric construct was used because the NOTCH transmembrane domain (TMD) appears resistant to GSM effects. The APP NOTCH TMD construct produced a spectrum of chimeric amyloid-β species in conditioned cell media (FIG. 19). Although the molecular weight and abundance of each chimeric peptide differed from amyloid-β peptides from APP, the main species produced from the APP-NOTCH TMD construct had identical C-termini to Ab1-40 and Ab1-42, and could be quantified by enzyme-linked immunosorbent assays (ELISAs; FIG. 19). The relative sensitivity to GSMs of APP-NOTCH TMD versus APP was assayed in stably transfected cells. […]

H4Bri-C99 (CTF-3) = details: 6 hours
Procedure: FIG. 6. […] Parent GSMs and biotin tagged photoactivatable GSMs were evaluated for their effects on Aβ secreted from H4Bri-C99 (CTF-3). Cells were treated with compounds for 6 hours and Aβ measured by ELISA. […] Changes in Aβ (percent control)±s.e.m., n=3.
Photoaffinity labelling. All experiments used the following general protocol. Samples (recombinant or synthetic peptides, cell lysates and membrane preparations) were exposed in borosilicate test tubes to ultraviolet light (350 nm) in a Rayonet Photoreactor R100 (RPR-3500 lamps, Southern New England Ultra Violet Company) in a cold room (4° C.) for 30 minutes or as otherwise noted. Crosslinked samples were analyzed by ELISA for biotin incorporation, or analyzed directly by SDS-PAGE (Criterion-XT, Bio-Rad), or after precipitation with streptavidin ultralink plus beads (Pierce). After immunblotting, proteins were detected using chemiluminesence (ECL Plus, GEHealthcare) or near-infrared fluorescence (LiCor Odyssey). Full-length APP and APP CTFs (CTF83, CTF99) were detected with CT20, a rabbit polyclonal antibody against the C-terminus of APP. Biotin was detected with an affinity-purified rabbit polyclonal antibody (Bethyl). Cell-based screens for amyloid-β modulation. Human H4 neuroglioma cells (American Type Culture Collection, ATCC) expressing wild-type APP695 protein or CTF105 fused to secreted alkaline phosphatase which is efficiently processed to APP CTFs (CTF83, CTF99) and produce high levels of amyloid-β, were used for the cell-based screens as previously described. Cells were incubated for 5-6 hours in the presence of the various compounds in Opti-Mem culture medium containing 1% fetal bovine serum. Compounds were dissolved in dimethylsulphoxide (DMSO; 0.5% final concentration) and diluted 200-fold. Media was analyzed for various amyloid-β species (40, 42 and total) using ELISAs as described herein. The EC50 values for changes in amyloid-β species were calculated by fitting sigmoid dose-response curves using nonlinear regression in Prism (GraphPad) and are shown as values±s.e.m. Statistical analysis. Data are presented as either percentage control or mean±s.e.m. Results were analyzed using Prism (Graph Pad) with t-tests or one-way analysis of variance analyses (ANOVAs) with Dunnett's post-hoc correction for comparison of multiple samples to a control. Statistical significance is shown as P,0.05 (one asterisk), P,0.01 (two asterisks) or P,0.001 (three asterisks).

Tg2576 mice = test: Acute oral dosing of Tg2576 mice, brain soluble Aβ after 4 hours; assay type: in vivo, mouse
Procedure: (§2) FIG. 2. Aβ modulating agents can inhibit Aβ aggregation, and agents that bind Aβ amyloid can modulate Aβ42 production. […] (C) Aβ42 modulating agents inhibit naturally secreted oligomer formation. 7PA2 cells were treated with fenofibrate, FT-1, or FT-9 at 50 μM and oligomers assessed by IP Western blotting. […] (D) FT-9, an Aβ42 reducing agent, can inhibit Aβ42 aggregation in vitro.
FIG. 13. Compounds that bind Aβ are GSMs in vitro and in vivo. (A) A cell-based screen of Aβ-binders identified molecules that increase Aβ42 (DAPH) or decrease Aβ42 (Bis-ANS, X-34 or chrysamine G (CG)). Data are mean±s.e.m., n=3. (B) X-34 is an Aβ42-lowering GSM. Changes in amyloid-β peptide amounts after X-34 treatment are shown. Data are presented as percentage control±s.e.m., n=3. EC50 values were calculated. […] NA, not applicable. (C) X-34 binds to APP(C100)-Flag and decreases labeling by GSM photoprobes. Biotin incorporation into APP by Fen-B and Flurbi-BpB is presented as percentage of control (peptide without X-34)±s.e.m., n=2. (D) X-34 lowers Aβ42 in Tg2576 mice after 4 h. […] Data are presented as amyloid-β percentage of control relative to vehicle±s.e.m. Animals per group (n). Asterisk, P,0.05; two asterisks, P,0.01; ANOVA with Dunnett's post-hoc analysis.
Finally, X-34 was tested for its ability to modulate Aβ42 amounts in an APP transgenic mouse (Tg2576).

human H4 cells = test: Steroid compounds, Aβ42 levels in human H4 cells (FIG. 2, FIG. 21); assay type: cell-based
From the text: FIG. 21 contains the results of an in vitro assay, studying the effects of various steroid compounds on Aβ42 levels in human H4 cells. Chemical names and molecular weights of each steroid are presented.
Agents having the ability to modulate Aβ42 levels were identified as follows. […] It was hypothesized that it might be possible to convert Aβ42 increasing agents into Aβ42 reducing agents by incorporating an acidic group into the core structure. For steroids, multiple steroids containing an acidic group were obtained from Steraloids Inc. and screened for the ability to reduce Aβ42 levels.

[1] = test system: 7PA2 cells (CHO cells stably expressing human APP751 V717F); test: 7PA2 cells: Aβ oligomers (IP/western) and Aβ ELISA; assay type: cell-based, Chinese hamster; details: for naturally secreted oligomer formation: 50 μM, IP Western blotting; for Aβ42 production in 7PA2 cells / dimeric and trimeric Aβ species: FT-9 and FT-1 20 μM, fenofibrate 100 μM, ~16 hours
Procedure: FIG. 17. γ-secretase modulators decrease the production of cell derived Aβ oligomers. CHO cells stably expressing human APP751 containing the familial Alzheimer's disease mutation V717F (referred to as 7PA2 cells) were incubated for ˜16 hours in the presence of GSMs. […] Aβ40 levels were decreased to varying degrees (26-35%; Li-Cor Odyssey). (B) and (C) Because the extended incubation times necessary to reliably detect Aβ oligomers in this assay can be toxic, we carried out additional dose response studies with fenofibrate and FT-9 to verify that decreases in Aβ oligomers levels were not related to toxicity or global inhibition of Aβ production. […] (C) Increasing doses of FT-9 reduced the detection of Aβ oligomeric bands and Aβ42 decreased preferentially with decreases in Aβ40 at higher doses. […] Aβ species present in conditioned medium were detected by IP using the polyclonal anti-Aβ antibody, DW6 and subsequent immunoblotting with either 6E10 or the 42-specific, anti-Aβ antibody 21F12. Aβ levels in the samples analyzed via IP/western were also quantified via sandwich ELISA. Data presented as percent vehicle control±s.e.m., n=2.
To address the question of whether GSMs influence the concentration of secreted amyloid-β oligomers, such as those released by Chinese hamster ovary (CHO) cells expressing the APP V717F mutation (referred to as 7PA2 cells), which alter long-term potentiation and perturb the memory of learned behavior when injected into rat brain, 7PA2 cells were treated with two Aβ42-raising GSMs and a novel Aβ42-lowering GSM (FIG. 17) (Walsh et al., Nature 416:535:539 (2002); Calabrese et al., Mol. Cell. Neurosci. 35:183-193 (2007)). Fenofibrate and FT-1 increased amounts of Aβ42 whereas FT-9 lowered Aβ42, but all three GSMs decreased amounts of amyloid-β dimers and trimers. […] In contrast to increased amyloid-β oligomer formation, when CHO cells are genetically manipulated to increase Aβ42 production by co-expression of APP and FAD-linked mutant PSEN1 proteins, both Aβ42-lowering and -raising GSMs decreased oligomer formation (Xia et al., J. Biol. Chem. 272: 7977-7982 (1997)).

Aβ42 = Aβ42 (Homo sapiens, UniProt P05067); test: Aβ42 aggregation in vitro (native gel electrophoresis); assay type: biochemical; details: 1 μM, 37° C.
Aβ42, sequence (P05067 672-713 limits assumed): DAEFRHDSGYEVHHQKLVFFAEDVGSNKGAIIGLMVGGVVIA
Procedure: as §2

SMILES: CC(C)C[C@H](NC(=O)[C@H](Cc1ccccc1)C[C@@H](O)[C@H](Cc1ccccc1)NC(=O)OC(C)(C)C)C(=O)N[C@@H](Cc1ccccc1)C(N)=O [L-685,458]
- 40 and 42 Aβ reactive species (APP wild-type cells; 10 μM, 6 hours, APPwt): inhibited
- 40 and 42 Aβ reactive species (APP-NOTCH TMD cells; 10 μM, 6 hours, APP-Notch TMD): inhibited

SMILES: C[C@@H](C(=O)O)c1ccc(-c2ccccc2)c(F)c1 [Tarenflurbil]
- Aβ42 (direction of change) (H4Bri-C99 (CTF-3)): lowered Aβ42
- total Aβ levels (H4Bri-C99 (CTF-3)): without decreasing total Aβ levels
- lowering of Aβ42 in the brains (Tg2576 mice; 50 mg kg21, Tg2576 mice, 4 h): 25%

SMILES: C[C@H](CCC(=O)O)[C@H]1CC[C@H]2[C@@H]3CC[C@@H]4CCCC[C@]4(C)[C@H]3CC[C@]12C [5β-cholanic acid]
- Aβ42 levels (acidic steroids) (human H4 cells): one of the more potent Aβ42 reducing agents
- Aβ42 levels (acidic steroids) (human H4 cells; listed as 5-β-cholanic acid): most potent Aβ42 lowering GSM
- Aβ42 levels (acidic steroids) (human H4 cells; listed as 5β-Cholanic acid): potently reduces Aβ42

SMILES: C[C@H](CCC(=O)O)[C@H]1CC[C@H]2[C@@H]3[C@H](O)C[C@@H]4C[C@H](O)CC[C@]4(C)[C@H]3CC[C@]12C [5β cholanic acid 3a, 7a diol]
- Aβ42 levels (acidic steroids) (human H4 cells): does not

SMILES: CC(C#N)c1ccc([N+](=O)[O-])c(Oc2cc(Cl)cc(Cl)c2)c1 (stereo not drawn) [FT-1, 2-(3-(3,5-dichlorophenoxy)-4-nitrophenyl)propanenitrile]
- naturally secreted oligomer formation [1]: inhibit oligomer formation
- Aβ42 production in 7PA2 cells [1]: increase production of Aβ42
- dimeric and trimeric Aβ species [1]: reduce production of dimeric and trimeric Aβ species
- Aβ42 raised (APP wild-type cells; APP wild-type cells): 200%
- Aβ40 signal (percentage of control) (APP-NOTCH TMD cells; APP-NOTCH TMD cells): 90%
- Aβ42 signal (percentage of control) (APP-NOTCH TMD cells; APP-NOTCH TMD cells): 95%

SMILES: C[C@H](NC(=O)[C@@H](O)c1cc(F)cc(F)c1)C(=O)N[C@@H]1C(=O)N(C)c2ccccc2-c2ccccc21 [LY-411575]
- selectivity of Aβ reduction (Aβ42 vs Aβ40) (Tg2576 mice; Tg2576, oral gavage, 4 hours): reduces Aβ40 preferentially

SMILES: CC(C(=O)O)c1cccc(Oc2cc(Cl)cc(Cl)c2)c1 (stereo not drawn) [FT-9, 2-(3-(3,5-dichlorophenoxy)phenyl)propanoic acid]
- total Aβ (ELISA) in dose response studies [1]: did not decrease
- naturally secreted oligomer formation [1]: inhibit oligomer formation
- Aβ42 production in 7PA2 cells [1]: lowers Aβ42
- dimeric and trimeric Aβ species [1]: reduce production of dimeric and trimeric Aβ species
- Aβ42 aggregation in vitro (Aβ42): inhibits Aβ42 aggregation
